Source: patent publication US4241056A, “Penicillins and salts thereof” (Boehringer Ingelheim GmbH, priority 1978, dated 1980)
Converted amounts (≈) assume the structure as drawn.

How the values were obtained:
[1] = system: klebsiella pneumoniae 272; assay: MIC, serial dilution test in the microtiter system; assay type: cell-based; conditions: 18 h, klebs pneum. 272, 37° C., 18-20 hours
Description: (§1) The tests were performed according to the method of the serial dilution test in the microtiter system. The effect of the substances on bacteriostasis was examined in a fluid medium. The activity on bacteriostatis was examined at the following concentrations:
(§2) 10 gm of peptone, 8 gm of meat extract-oxoid, 3 gm of sodium chloride, 2 gm of sec. sodium phosphate were diluted with distilled water to 1000 ml (pH 7.2-7.4). Only in the test against streptococci 1% of glucose was added. The age of the primary cultures was about 20 hours. The standardizations of the pathogen suspension was effected by using a photometer according to "Eppendorf" (test tube diameter 14 mm, filter 546 nm) with the aid of the turbidity of a comparison suspension consisting of barium sulfate, this suspension being prepared by addition of 3.0 ml of 1% barium chloride solution to 97 ml of 1% sulfuric acid. After the standardization, streptococcus aronson were further diluted to a concentration of 1:15 and the other germs to a concentration of 1:1500 by menas of a sodium chloride solution.
(§3) 16 mg of the test substance were put into a 10 ml measuring flask and filled up to the mark with the solvent. The further dilution series was standardized with distilled water or the respective solvent.
(§4) The cavities of the microtiter plates were filled with 0.2 ml of nutrient medium. Then, 0.01 ml of the corresponding test substance dilution was added and inoculated with 0.01 ml of the standardized suspension. The bacteria were incubated at 37° C. for 18-20 hours. Control tests merely using the solvent were carried out simultaneously.
(§5) The measurement was carried out macroscopically to determine the minimal inhibitory (threshold) concentration, i.e. the lowest still bacteriostatically effective concentration.
(§6) Staphylococcus aureus SG 511, streptococcus aronson, streptococcus faecalis ATCC 10541, escherichia coli ATCC 9637, 11 775 and escherichia coli 12593/74 (β-lactamase carrier), pseudomonas aeruginosa hamburgensis and ATCC 10145, serratia marcescens ATCC 13 880, klebsiella pneumoniae ATCC 10 031 and 272 and proteus mirabilis hamburgensis.

[2] = system: streptococcus faecalis ATCC 10541; assay: MIC, serial dilution test in the microtiter system; assay type: cell-based; conditions: Enterococcus faecalis, ATCC10541, 18 h; strept. faecal.; 37° C., 18-20 hours
Description: as §1, §2, §3, §4, §5, §6

[3] = system: proteus mirabilis hamburgensis; assay: MIC, serial dilution test in the microtiter system; assay type: cell-based; conditions: 18 h, prot. mirabilis, 37° C., 18-20 hours
Description: as §1, §2, §3, §4, §5, §6

[4] = system: escherichia coli ATCC 9637; assay: MIC, serial dilution test in the microtiter system; assay type: cell-based; conditions: ATCC9637, 18 h, E. coli ATCC 9637, 37° C., 18-20 hours
Description: as §1, §2, §3, §4, §5, §6

[5] = system: pseudomonas aeruginosa hamburgensis; assay: MIC, serial dilution test in the microtiter system; assay type: cell-based; conditions: 18 h, pseud. aerug. hamb., 37° C., 18-20 hours
Description: as §1, §2, §3, §4, §5, §6

[6] = system: klebsiella pneumoniae ATCC 10 031; assay: MIC, serial dilution test in the microtiter system; assay type: cell-based; conditions: 18 h, klebs pneum ATCC 10031, 37° C., 18-20 hours
Description: as §1, §2, §3, §4, §5, §6

[7] = system: serratia marcescens ATCC 13 880; assay: MIC, serial dilution test in the microtiter system; assay type: cell-based; conditions: ATCC13, 18 h, serrat marcesc., 37° C., 18-20 hours
Description: as §1, §2, §3, §4, §5, §6

[8] = system: streptococcus aronson; assay: MIC, serial dilution test in the microtiter system; assay type: cell-based; conditions: 18 h, strept. aronson, 1% glucose added, 37° C., 18-20 hours
Description: as §1, §2, §3, §4, §5, §6

[9] = system: pseudomonas aeruginosa ATCC 10145; assay: MIC, serial dilution test in the microtiter system; assay type: cell-based; conditions: ATCC10145, 18 h, pseud. aerug. ATCC 10145, 37° C., 18-20 hours
Description: as §1, §2, §3, §4, §5, §6

[10] = system: escherichia coli 12593/74 (β-lactamase carrier); assay: MIC, serial dilution test in the microtiter system; assay type: cell-based; conditions: 18 h, E. coli 12593/74 (β-lactamase carrier), 37° C., 18-20 hours
Description: as §1, §2, §3, §4, §5, §6

[11] = system: Staphylococcus aureus SG 511; assay: MIC, serial dilution test in the microtiter system; assay type: cell-based; conditions: SG511, 18 h, Staph. Aureus SG 511, 37° C., 18-20 hours
Description: as §1, §2, §3, §4, §5, §6

[12] = system: escherichia coli ATCC 11775; assay: MIC, serial dilution test in the microtiter system; assay type: cell-based; conditions: ATCC11775, 18 h, E. coli ATCC 11775, 37° C., 18-20 hours
Description: as §1, §2, §3, §4, §5, §6

[13] = Serum (blood) level in rats; assay type: in vivo; conditions: rat, average from 3 rats; for concentration at 1 h: 60 min.; for concentration at 2 h: 120 min.
Description: For the determination of the serum level in rats, typical representatives of the penicillins according to the invention were administered at a dosage of 10 mg/kg subcutaneously or 100 mg/kg per os to groups of 3 female FW 49 rats (weight 100 to 130 gm) each. Blood tests taken from the heart were worked up, and the obtained sera were tested by the cylinder test-agar diffusion method on plates with sarcina lutea ATCC 15957. The samples were compared with standard curves.

[14] = system: E. coli ATCC 11775; assay: In vivo activity against experimental infection in mice; set-up: species or system mouse (NMRI); conditions: Escherichia coli, ATCC11775, sc, 168 h, subcutaneous, 7 days observation, read-out: ED50 (dose at which 50% of the animals survived)
Description: A number of compounds of this invention were tested in vivo in mice against experimental infections. Bacteria E. coli ATCC 11775 and pseudomonas aeruginosa walter were used as pathogens. An intraperitoneal infection with 0.2 ml of a 5% mucin suspension of the bacteria was induced. This corresponds to about 2×10^6 germs E. coli and 8×10^5 germs pseudomonas/mouse. Female NMRI mice were divided into groups of 10 animals each, two control groups remained untreated, the remaining groups were treated with different doses of the respective penicillins for the determination of the ED50 (dose at which 50% of the animals survived). The groups with the E. coli infection were treated with the substance 3 times on the first day (1, 4 and 7 hours post-infectionem) and for 2 days thereafter twice a day. The groups with the pseudomonas infection were treated with the substance applied 6 times on the first day (1, 3, 6, 9, 12, and 15 hours post-infectionem) and for 2 days thereafter twice a day. The observation time was in both cases 7 days.

Structure (SMILES) | MIC [1] [µg/mL] | MIC [2] [µg/mL] | MIC [3] [µg/mL] | MIC [4] [µg/mL] | MIC [5] [µg/mL] | MIC [6] [µg/mL] | MIC [7] [µg/mL] | MIC [8] [µg/mL] | MIC [9] [µg/mL] | MIC [10] [µg/mL] | MIC [11] [µg/mL] | MIC [12] [µg/mL] | concentration at 1 h ([13]; oral 100 mg/kg) [ng/mL] | concentration at 2 h ([13]; oral 100 mg/kg) [ng/mL] | concentration at 1 h ([13]; sc, subcutaneous 10 mg/kg) [ng/mL] | concentration at 2 h ([13]; sc, subcutaneous 10 mg/kg) [ng/mL] | ED50 [14] [mg/kg]
CC1(C)S[C@@H]2[C@H](NC(=O)[C@H](NC(=O)Nc3cnc(NC4CCCCC4)nc3O)c3ccc(O)cc3)C(=O)N2[C@H]1C(=O)O [L, D-α-[3-(2-cyclohexylamino-4-hydroxy-5-pyrimidyl)-ureido]-p-hydroxybenzyl-penicillin sodium] | 10 | 5 | 0.6 | 0.6 | 2.5 | 20 | 1.25 | 0.08 | 2.5 | > 80 | 0.3 | 1.25 | – | – | – | – | –
CC1(C)S[C@@H]2[C@H](NC(=O)[C@H](NC(=O)Nc3cnc(Nc4ccccc4)nc3O)c3ccc(O)cc3)C(=O)N2[C@H]1C(=O)O [G, D-α-[3-(2-anilino-4-hydroxy-5-pyrimidyl)-ureido]-p-hydroxy-benzyl-penicillin sodium] | 5 | 5 | 2.5 | 0.6 | 5 | 10 | 0.3 | 0.08 | 2.5 | > 80 | 0.3 | 1.25 | 600 | 100 | 5600 | 1500 | 8
CC1(C)S[C@@H]2[C@H](NC(=O)[C@H](NC(=O)Nc3cnc(Cc4ccc(Cl)cc4)nc3O)c3ccc(O)cc3)C(=O)N2[C@H]1C(=O)O [D, D-α-[3-(2-p-chlorobenzyl-4-hydroxy-5-pyrimidyl)-ureido]-p-hydroxybenzyl-penicillin sodium] | 10 | 10 | 1.25 | 2.5 | 5 | 5 | 1.25 | 0.02 | 2.5 | 80 | 0.08 | 1.25 | 4100 | 1000 | 7100 | 300 | 9
CN(C)C(=O)Nc1ncc(NC(=O)N[C@@H](C(=O)N[C@@H]2C(=O)N3[C@@H]2SC(C)(C)[C@@H]3C(=O)O)c2ccc(O)cc2)c(O)n1 [M] | > 80 | 80 (≈ 136 µM) | 2.5 (≈ 4.25 µM) | 10 (≈ 17 µM) | 5 (≈ 8.49 µM) | > 80 | 10 (≈ 17 µM) | 0.3 (≈ 0.51 µM) | 5 (≈ 8.49 µM) | > 80 | 1.25 (≈ 2.12 µM) | 2.5 (≈ 4.25 µM) | – | – | – | – | –
CC1(C)S[C@@H]2[C@H](NC(=O)[C@H](NC(=O)Nc3cnc(N4CCOCC4)nc3O)c3ccc(O)cc3)C(=O)N2[C@H]1C(=O)O [K, D-α-[3-(4-hydroxy-2-morpholiono-5-pyrimidyl)-ureido]-p-hydroxybenzyl-penicillin sodium] | 80 | 10 | 1.25 | 2.5 | 2.5 | > 80 | 5 | 0.3 | 1.25 | > 80 | 1.25 | 2.5 | – | – | – | – | –
CC1(C)S[C@@H]2[C@H](NC(=O)[C@H](NC(=O)Nc3cnc(Nc4ccc(Cl)c(Cl)c4)nc3O)c3ccc(O)cc3)C(=O)N2[C@H]1C(=O)O [J, D-α-[3-(2-m,p-dichloroanilino-4-hydroxy-5-pyrimidyl)-ureido]-p-hydroxybenzyl-penicillin sodium] | 2.5 | 2.5 | 0.6 | 1.25 | 2.5 | 2.5 | 0.6 | 0.02 | 2.5 | 10 | – | 0.6 | – | – | – | – | –

Now from value to compound, other results behind:

MIC [1] [µg/mL] | MIC [2] [µg/mL] | MIC [3] [µg/mL] | MIC [4] [µg/mL] | MIC [5] [µg/mL] | MIC [6] [µg/mL] | MIC [7] [µg/mL] | MIC [8] [µg/mL] | MIC [9] [µg/mL] | MIC [10] [µg/mL] | MIC [11] [µg/mL] | MIC [12] [µg/mL] | Structure (SMILES) | concentration at 1 h ([13]; oral 100 mg/kg) [ng/mL] | concentration at 2 h ([13]; oral 100 mg/kg) [ng/mL] | concentration at 1 h ([13]; sc, subcutaneous 10 mg/kg) [ng/mL] | concentration at 2 h ([13]; sc, subcutaneous 10 mg/kg) [ng/mL] | ED50 [14] [mg/kg]
10 | 5 | 0.08 | 1.25 | 2.5 | 10 | 1.25 | 0.08 | 1.25 | 80 | 0.3 | 1.25 | CCCNc1ncc(NC(=O)N[C@@H](C(=O)N[C@@H]2C(=O)N3[C@@H]2SC(C)(C)[C@@H]3C(=O)O)c2ccc(O)cc2)c(O)n1 [P, D-α-[3-(4-hydroxy-2-propylamino-5-pyrimidyl)-ureido]-p-hydroxybenzyl-penicillin sodium] | – | – | – | – | –
10 | 10 | 0.3 | 0.3 | 10 | 20 | 1.25 | 0.02 | 5 | 80 | 0.3 | 0.65 | CC1(C)S[C@@H]2[C@H](NC(=O)[C@H](NC(=O)Nc3cnc(NCc4ccc(Cl)cc4)nc3O)c3ccc(O)cc3)C(=O)N2[C@H]1C(=O)O [O, D-α-[3-(2-p-chlorobenzylamino-4-hydroxy-5-pyrimidyl)-ureido]-p-hydroxybenzyl-penicillin sodium] | – | – | – | – | –
– | – | – | 10 (≈ 18.5 µM) | 40 (≈ 74.1 µM) | – | – | – | 20 (≈ 37.1 µM) | – | – | 5 (≈ 9.27 µM) | CC1(C)S[C@@H]2[C@H](NC(=O)[C@H](NC(=O)N3CCN(S(C)(=O)=O)C3=O)c3ccccc3)C(=O)N2[C@H]1C(=O)O [R, reference compound] | – | – | – | – | –
– | – | – | 10 | 20 | – | – | – | 20 | – | – | 2.5 | CC1(C)S[C@@H]2[C@H](NC(=O)[C@H](NC(=O)Nc3cnccc3O)c3ccccc3)C(=O)N2[C@H]1C(=O)O [S, D-α-[(4-hydroxy-3-pyridyl)-ureido]benzylpenicillin sodium, reference compound] | – | – | – | – | –
40 | 10 | 0.3 | 2.5 | 2.5 | 80 | 5 | 0.08 | 2.5 | > 80 | 0.3 | 2.5 | CNc1ncc(NC(=O)N[C@@H](C(=O)N[C@@H]2C(=O)N3[C@@H]2SC(C)(C)[C@@H]3C(=O)O)c2ccc(O)cc2)c(O)n1 [N, D-α-[3-(4-hydroxy-2-methylamino-5-pyrimidyl)-ureido]-p-hydroxybenzyl-penicillin sodium] | – | – | – | – | –
